Measured values as given in the supplement of paper PMC9663587.

How the values were obtained:
YKL-5-124 = compound: C=CC(=O)Nc1ccc(C(=O)Nc2[nH]nc3c2CN(C(=O)N[C@H](CN(C)C)c2ccccc2)C3(C)C)cc1 [YKL-5-124]; test: increase in dead-cell fraction, 72 h; higher = more death;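 also: breast cancer cell lines in 384-well plates, stained with Hoechst plus LIVE/DEAD far red dye and imaged, cells above an LDR intensity threshold counted dead, Hoechst-negative corpses included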
BSJ-03-123 = compound: CC(=O)c1c(C)c2cnc(Nc3ccc(N4CCN(CCOCCOCCOCCNC(=O)COc5cccc6c5C(=O)N(C5CCC(=O)NC5=O)C6=O)CC4)cn3)nc2n(C2CCCC2)c1=O [BSJ-03-123]; test: as above
[1] = compound: CC(=O)c1c(C)c2cnc(Nc3ccc(N4CCNCC4)cn3)nc2n(C2CCCC2)c1=O; test: as above
[2] = compound: CCN1CCN(Cc2ccc(Nc3ncc(F)c(-c4cc(F)c5nc(C)n(C(C)C)c5c4)n3)nc2)CC1; test: as above
Neratinib/HKI272 [3] = compound: T1, CCOc1cc2ncc(C#N)c(Nc3ccc(OCc4ccccn4)c(Cl)c3)c2cc1NC(=O)/C=C/CN(C)C [Neratinib/HKI272]; test: as above
[4] = compound: CCc1cnn2c(NCc3ccc[n+]([O-])c3)cc(N3CCCC[C@H]3CCO)nc12; test: as above
LEE011/Ribociclib = compound: CN(C)C(=O)c1cc2cnc(Nc3ccc(N4CCNCC4)cn3)nc2n1C1CCCC1 [LEE011/Ribociclib]; test: as above
THZ531 = compound: CN(C)C/C=C/C(=O)Nc1ccc(C(=O)N2CCC[C@@H](Nc3ncc(Cl)c(-c4c[nH]c5ccccc45)n3)C2)cc1 [THZ531]; test: as above
THZ1 = compound: CN(C)C/C=C/C(=O)Nc1ccc(C(=O)Nc2cccc(Nc3ncc(Cl)c(-c4c[nH]c5ccccc45)n3)c2)cc1 [THZ1]; test: as above
Flavopiridol [5] = compound: T2, CN1CC[C@H](c2c(O)cc(O)c3c(=O)cc(-c4ccccc4Cl)oc23)[C@H](O)C1 [Flavopiridol]; test: as above
Neratinib/HKI272 [6] = compound: T1, Neratinib/HKI272; test: GR value, 72 h; higher = faster growth (1 = untreated, <0 = killing);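 also: breast cancer and non-malignant breast epithelial lines, nine half-log doses, viable cells counted by Hoechst and LIVE/DEAD dye imaging versus time-zero plates and DMSO controls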
Flavopiridol [7] = compound: T2, Flavopiridol; test: as above

## AU565
YKL-5-124; 0.001 µM
  increase in dead-cell fraction: 0.0305
YKL-5-124; 0.003162 µM
  increase in dead-cell fraction: 0.0489
YKL-5-124; 0.01 µM
  increase in dead-cell fraction: 0.0994
YKL-5-124; 0.03162 µM
  increase in dead-cell fraction: 0.0877
YKL-5-124; 0.1 µM
  increase in dead-cell fraction: 0.0813
YKL-5-124; 0.3162 µM
  increase in dead-cell fraction: 0.114
YKL-5-124; 1 µM
  increase in dead-cell fraction: 0.113
YKL-5-124; 3.162 µM
  increase in dead-cell fraction: 0.215
YKL-5-124; 10 µM
  increase in dead-cell fraction: 0.524
BSJ-03-123; 0.001 µM
  increase in dead-cell fraction: 0.0012
BSJ-03-123; 0.003162 µM
  increase in dead-cell fraction: -0.0066
BSJ-03-123; 0.01 µM
  increase in dead-cell fraction: 0.0069
BSJ-03-123; 0.03162 µM
  increase in dead-cell fraction: -0.0059
BSJ-03-123; 0.1 µM
  increase in dead-cell fraction: 0.0078
BSJ-03-123; 0.3162 µM
  increase in dead-cell fraction: 0.0057
BSJ-03-123; 1 µM
  increase in dead-cell fraction: 0.0399
BSJ-03-123; 3.162 µM
  increase in dead-cell fraction: 0.0336
BSJ-03-123; 10 µM
  increase in dead-cell fraction: 0.306
[1]; 0.0003162 µM
  increase in dead-cell fraction: -0.0036
[1]; 0.001 µM
  increase in dead-cell fraction: -0.0011
[1]; 0.003162 µM
  increase in dead-cell fraction: 0.0019
[1]; 0.01 µM
  increase in dead-cell fraction: -0.0007
[1]; 0.03162 µM
  increase in dead-cell fraction: 0.008
[1]; 0.1 µM
  increase in dead-cell fraction: 0.0139
[1]; 0.3162 µM
  increase in dead-cell fraction: 0.0209
[1]; 1 µM
  increase in dead-cell fraction: 0.0255
[1]; 3.162 µM
  increase in dead-cell fraction: 0.0446
[2]; 0.001 µM
  increase in dead-cell fraction: 0.0076
[2]; 0.003162 µM
  increase in dead-cell fraction: 0.0065
[2]; 0.01 µM
  increase in dead-cell fraction: 0.0106
[2]; 0.03162 µM
  increase in dead-cell fraction: 0.0354
[2]; 0.1 µM
  increase in dead-cell fraction: 0.043
[2]; 0.3162 µM
  increase in dead-cell fraction: 0.0403
[2]; 1 µM
  increase in dead-cell fraction: 0.0369
[2]; 3.162 µM
  increase in dead-cell fraction: 0.0205
[2]; 10 µM
  increase in dead-cell fraction: 0.085
Neratinib/HKI272 [3]; 0.0003162 µM
  increase in dead-cell fraction: 0.0048
Neratinib/HKI272 [3]; 0.001 µM
  increase in dead-cell fraction: 0.0173
Neratinib/HKI272 [3]; 0.003162 µM
  increase in dead-cell fraction: 0.0398
Neratinib/HKI272 [3]; 0.01 µM
  increase in dead-cell fraction: 0.0858
Neratinib/HKI272 [3]; 0.03162 µM
  increase in dead-cell fraction: 0.16
Neratinib/HKI272 [3]; 0.1 µM
  increase in dead-cell fraction: 0.195
Neratinib/HKI272 [3]; 0.3162 µM
  increase in dead-cell fraction: 0.232
Neratinib/HKI272 [3]; 1 µM
  increase in dead-cell fraction: 0.206
Neratinib/HKI272 [3]; 3.162 µM
  increase in dead-cell fraction: 0.321
[4]; 0.0001 µM
  increase in dead-cell fraction: 0.0029
[4]; 0.0003162 µM
  increase in dead-cell fraction: 0.0001
[4]; 0.001 µM
  increase in dead-cell fraction: 0.0027
[4]; 0.003162 µM
  increase in dead-cell fraction: 0.0033
[4]; 0.01 µM
  increase in dead-cell fraction: 0.0437
[4]; 0.03162 µM
  increase in dead-cell fraction: 0.247
[4]; 0.1 µM
  increase in dead-cell fraction: 0.346
[4]; 0.3162 µM
  increase in dead-cell fraction: 0.315
[4]; 1 µM
  increase in dead-cell fraction: 0.345
LEE011/Ribociclib; 0.001 µM
  increase in dead-cell fraction: -0.0067
LEE011/Ribociclib; 0.003162 µM
  increase in dead-cell fraction: -0.0027
LEE011/Ribociclib; 0.01 µM
  increase in dead-cell fraction: 0.0258
LEE011/Ribociclib; 0.03162 µM
  increase in dead-cell fraction: 0.0105
LEE011/Ribociclib; 0.1 µM
  increase in dead-cell fraction: 0.0143
LEE011/Ribociclib; 0.3162 µM
  increase in dead-cell fraction: 0.0331
LEE011/Ribociclib; 1 µM
  increase in dead-cell fraction: 0.0469
LEE011/Ribociclib; 3.162 µM
  increase in dead-cell fraction: 0.0463
LEE011/Ribociclib; 10 µM
  increase in dead-cell fraction: 0.0439
THZ531; 0.0001 µM
  increase in dead-cell fraction: 0.0002
THZ531; 0.0003162 µM
  increase in dead-cell fraction: 0.0023
THZ531; 0.001 µM
  increase in dead-cell fraction: -0.0009
THZ531; 0.003162 µM
  increase in dead-cell fraction: 0.0019
THZ531; 0.01 µM
  increase in dead-cell fraction: -0.005
THZ531; 0.03162 µM
  increase in dead-cell fraction: 0.0372
THZ531; 0.1 µM
  increase in dead-cell fraction: 0.133
THZ531; 0.3162 µM
  increase in dead-cell fraction: 0.297
THZ531; 1 µM
  increase in dead-cell fraction: 0.488
THZ1; 0.0001 µM
  increase in dead-cell fraction: -0.0048
THZ1; 0.0003162 µM
  increase in dead-cell fraction: -0.0064
THZ1; 0.001 µM
  increase in dead-cell fraction: -0.0098
THZ1; 0.003162 µM
  increase in dead-cell fraction: -0.0018
THZ1; 0.01 µM
  increase in dead-cell fraction: 0.0038
THZ1; 0.03162 µM
  increase in dead-cell fraction: 0.0873
THZ1; 0.1 µM
  increase in dead-cell fraction: 0.262
THZ1; 0.3162 µM
  increase in dead-cell fraction: 0.48
THZ1; 1 µM
  increase in dead-cell fraction: 0.579
Flavopiridol [5]; 0.0001 µM
  increase in dead-cell fraction: -0.0146
Flavopiridol [5]; 0.0003162 µM
  increase in dead-cell fraction: -0.004
Flavopiridol [5]; 0.001 µM
  increase in dead-cell fraction: 0.0124
Flavopiridol [5]; 0.003162 µM
  increase in dead-cell fraction: 0.0024
Flavopiridol [5]; 0.01 µM
  increase in dead-cell fraction: -0.0083
Flavopiridol [5]; 0.03162 µM
  increase in dead-cell fraction: 0.0121
Flavopiridol [5]; 0.1 µM
  increase in dead-cell fraction: 0.0266
Flavopiridol [5]; 0.3162 µM
  increase in dead-cell fraction: 0.262
Flavopiridol [5]; 1 µM
  increase in dead-cell fraction: 0.602
Neratinib/HKI272 [6]; 0.0003162 µM
  GR value: 0.834 GR
Neratinib/HKI272 [6]; 0.001 µM
  GR value: 0.534 GR
Neratinib/HKI272 [6]; 0.003162 µM
  GR value: 0.172 GR
Neratinib/HKI272 [6]; 0.01 µM
  GR value: -0.145 GR
Neratinib/HKI272 [6]; 0.03162 µM
  GR value: -0.318 GR
Neratinib/HKI272 [6]; 0.1 µM
  GR value: -0.388 GR
Neratinib/HKI272 [6]; 0.3162 µM
  GR value: -0.506 GR
Neratinib/HKI272 [6]; 1 µM
  GR value: -0.585 GR
Neratinib/HKI272 [6]; 3.162 µM
  GR value: -0.614 GR
Flavopiridol [7]; 0.0001 µM
  GR value: 1.11 GR
Flavopiridol [7]; 0.0003162 µM
  GR value: 1.02 GR
Flavopiridol [7]; 0.001 µM
  GR value: 0.906 GR
Flavopiridol [7]; 0.003162 µM
  GR value: 0.852 GR
Flavopiridol [7]; 0.01 µM
  GR value: 1 GR
Flavopiridol [7]; 0.03162 µM
  GR value: 0.858 GR
Flavopiridol [7]; 0.1 µM
  GR value: 0.472 GR
Flavopiridol [7]; 0.3162 µM
  GR value: -0.198 GR
Flavopiridol [7]; 1 µM
  GR value: -0.69 GR
